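Five concentrations, 48 hours, 96-well plates. Here, GI50 denotes the concentration required for 50% inhibition of growth. TGI marks complete inhibition of growth.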
Assays:
Assay in all cases: DTP human tumour cell line panel, 48 h
[1] = tested on: MOLT-4 leukemia
[2] = tested on: UO-31 renal
[3] = tested on: SK-OV-3 ovarian
[4] = tested on: U251 CNS
[5] = tested on: COLO 205 colon
[6] = tested on: OVCAR-4 ovarian
[7] = tested on: SR leukemia
[8] = tested on: M14 melanoma
[9] = tested on: IGROV1 ovarian
[10] = tested on: A498 renal

| Compound | GI50 [1] [µM] | TGI [1] [µM] | GI50 [2] [µM] | TGI [2] [µM] | GI50 [3] [µM] | TGI [3] [µM] | GI50 [4] [µM] | TGI [4] [µM] | GI50 [5] [µM] | TGI [5] [µM] | GI50 [6] [µM] | TGI [6] [µM] | GI50 [7] [µM] | TGI [7] [µM] | GI50 [8] [µM] | TGI [8] [µM] | GI50 [9] [µM] | TGI [9] [µM] | GI50 [10] [µM] | TGI [10] [µM] |
| --- | --- | --- | --- | --- | --- | --- | --- | --- | --- | --- | --- | --- | --- | --- | --- | --- | --- | --- | --- | --- |
| Cc1cc(S(N)(=O)=O)c(S/C(=N\NS(=O)(=O)c2ccccc2)c2ccc(Cl)c(Cl)c2)cc1Cl | 30.3 | > 100 | 54.5 | > 100 | > 100 | > 100 | 28.8 | > 100 | 45.7 | > 100 | 40.6 | > 100 | 27.9 | > 100 | 92.3 | > 100 | 44 | > 100 | 35 | 87.1 |
| CC(=O)OC1Oc2cc(C)c(C)cc2-c2oc(=O)c(-c3ccccc3)cc21 (centres undefined) | 0.355 | – | 0.499 | 35.9 | 0.407 | 37.3 | 0.44 | 58.8 | 0.385 | 3.64 | 3.92 | > 100 | 0.215 | > 100 | 0.351 | > 100 | 0.139 | 0.432 | 0.271 | 3.11 |
| Cc1ccc(N2C(=O)/C(=C3\Sc4c(nc(C)n(C)c4=O)N3c3ccccc3)SC2=S)cc1 | – | > 100 | – | > 100 | – | > 100 | – | > 100 | – | > 100 | – | > 100 | – | > 100 | – | > 100 | – | > 100 | – | 69 |
| NC(=O)c1c(NC(=O)c2cccc(C(F)(F)F)c2)sc2c1CCC(=O)C2 | 0.404 | > 20.2 | 0.291 | 1.19 | 2.8 | 8.39 | 0.307 | 16.6 | 0.437 | 1.8 | 0.292 | 1.25 | 0.424 | > 100 | 0.437 | 11.6 | 0.468 | 3.47 | 3.33 | > 100 |
| O=C(Nc1cccc(Cl)c1)c1cc(Cl)ccc1O | 1.84 | 5.04 | 0.369 | 7.08 | 0.582 | 2.81 | 0.841 | > 38.2 | 2.64 | 6.71 | 1.46 | > 100 | 0.457 | 2.96 | 0.851 | 5.4 | 1.61 | > 58 | 0.256 | 0.764 |
| CN1C=C(C(N)=O)C2CC(O)[C@@](NC(=O)CS(N)(=O)=O)(C(=O)O)C2C1 (some centres undefined) | – | 31.6 | – | 14.1 | – | 6.75 | – | 11 | – | 29.2 | – | 4.15 | – | 15.7 | – | 2.8 | – | 7.83 | – | 4.96 |
| Cc1ccc(S(=O)c2ccc([N+](=O)[O-])c3nonc23)cc1 (centres undefined) | 2.64 | 6.96 | 2.4 | 9.54 | 18.8 | 34.3 | 16 | 35 | 1.9 | 3.43 | 3.08 | 9.24 | 3.39 | > 100 | 11 | 23.7 | 12.2 | 27.4 | 11.8 | 26.4 |
| Cc1cc(C(=O)Nc2cc(Nc3ncccc3-c3ncnc4nc[nH]c34)ccc2F)cc(C(C)(C)C#N)c1 | 3.45 | > 100 | 0.239 | > 100 | 26 | > 100 | 3.74 | > 100 | 0.0526 | > 100 | 5.33 | > 100 | 1.99 | 45.3 | 0.0388 | 1.12 | 0.694 | > 100 | 0.0748 | 0.491 |
| COc1cc(/C=C2\C(=O)Nc3ccc(Br)cc32)cc(OC)c1OC | 8.51 | > 100 | 6.73 | > 100 | 24 | > 56.1 | 7.19 | 30 | 8.18 | > 100 | > 29 | > 100 | 0.304 | 3.08 | 15.7 | > 100 | 2.29 | 17 | 13.7 | > 55.8 |
| OCCN(CCO)c1ncnc2c1sc(=S)n2-c1ccccc1 | – | > 100 | – | > 100 | – | > 100 | – | > 100 | – | > 100 | – | > 100 | – | > 100 | – | > 100 | – | > 100 | – | > 100 |
| N#CC1=C(N)Oc2c(sc3c(Br)cccc23)C1c1ccc(F)cc1 (centres undefined) | 0.473 | 14.2 | 0.515 | 20.1 | 0.471 | 18.6 | 0.473 | 13.4 | 0.366 | 1.69 | 0.65 | 23.4 | 0.241 | 11.9 | 0.3 | 14.9 | 0.605 | 21 | 0.314 | 16.7 |
| CC12O[Te]34OC1(C)C(C)(O3)C2(C)O4 | – | 34.6 | – | 23.5 | – | 36.3 | – | 15.2 | – | 31.1 | – | 27.4 | – | 34 | – | 33.7 | – | 24.9 | – | > 8.75 |
| COc1ccc2nc3cc(Cl)ccc3c(Nc3ccc(O)c(CN4CCCC4)c3)c2c1 | 2.43 | 11.4 | 1.83 | 3.7 | 6.21 | 19 | 2.15 | 4.44 | 1.83 | 3.48 | 2.7 | 8.24 | 0.534 | 3.3 | 1.89 | 3.54 | 2.6 | 6.67 | 2.89 | 12.2 |
| NC(=O)c1ncn(C2OC(CO)C(O)C2O)c1NC(=S)NC(=O)c1ccccc1 (centres undefined) | – | > 100 | – | > 100 | – | > 100 | – | > 100 | – | > 100 | – | > 100 | – | > 100 | – | > 100 | – | > 100 | – | > 100 |
| COc1cccc(C2CC(=O)Nc3cc4c(cc32)CCC4)c1OC (centres undefined) | 3.16 | 10.2 | 7.18 | 38.7 | 3.73 | 20 | 4.71 | 19.3 | 3.13 | 8.48 | 12.3 | 98.2 | 2.87 | 10.8 | 2.59 | 8.94 | 6.49 | 59.3 | 2.39 | 13.2 |
| O=C1OC(c2ccc(Cl)c3ccccc23)c2ccccc21 (centres undefined) | – | > 100 | – | > 100 | – | > 100 | – | > 100 | – | > 100 | – | > 100 | – | > 100 | – | > 100 | – | > 100 | – | > 100 |
